This is an account of results in US5473083A, “Reduced and quaternized psoralens as photo-activated therapeutics” (Lehigh University, priority 1994, dated 1995).

In the experiment the test system is epidermal growth factor receptor (HeLa cells). The experiment can be described thus: Epidermal growth factor binding inhibition assay: 125I-EGF binding to HeLa cells after treatment with phototherapeutic and UVA. The experiment is classed as cell-based, human. From the text: The primary in vitro screen for the phototherapeutics described herein is based on our discovery that beneficial phototherapeutics inhibit binding in cells of epithelial origin with epidermal growth factor (EGF). Furthermore, the degree of effective competition in this EGF binding assay relates to the phototherapeutic effect of the test agent. [J. Laskin, E. Lee, D. Laskin, M. Gallo, Proc. Nat. Acad. Sci. (U.S.A.) 83:8211 (1986)].
Inhibition of EGF binding is dependent on dose of the phototherapeutic and on the quanta of light in the 320-400 nm wavelength (ultraviolet light A). It is also structure-dependent, that is, there is a direct correlation between those specific phototherapeutics currently used that are clinically active and their ability to inhibit the binding of epidermal growth factor to its receptor.
The ability of the above compounds in the presence of ultraviolet light, to inhibit epidermal growth factor binding to its cell surface receptor is directly related to its phototherapeutic potential. To assay these compounds for this biological activity, human cells (HeLa) grown in vitro were used. Cells (1.8×10^4 /cm^2) were inoculated into 5 cm culture dishes in growth medium consisting of Dulbecco's modified Eagle's medium supplemented with 10% newborn calf serum. After 4-5 days at 37° C. in a humidified CO2 incubator, the cells were washed three times with 2 ml of phosphate buffered saline and then incubated with the different phototherapeutics in 2 ml of Earle's salt solution supplemented with 5.2 mM D-glucose/25 mM Hepes buffer, pH 7.2. Control cultures were incubated in 2 ml of Earle's salt solution in the absence of the test drugs. After 30 minutes, the cells were then exposed to ultraviolet light (UVA, 320-400 nm) emitted from a bank of four BLB fluorescent light tubes (F40BL/Sylvania) placed approximately 10 cm above the cell culture plates. The incident light delivered onto the culture plates was 3.4 mW per cm^2 as measured with an International Light UV-Radiometer and the cells received 2.1 J/cm^2 of UVA light. After this light exposure, the cells were rinsed with phosphate buffered saline and submitted for assay of epidermal growth factor binding. Phototherapeutic treated cells were then incubated for 2 hours at 4° C. with 2 ml of binding buffer (Dulbecco's modified Eagle's medium/25 mM Hepes buffer, pH 7.2) containing 2 nM labeled epidermal growth factor (^125 I-EGF, specific activity 200 Ci/g).
Nonspecific binding was determined by incubating separate plates of cells with buffer containing the radioligand and excess unlabeled epidermal growth factor (1 microgram/ml). The binding reaction of the radioligand to the cells was terminated by aspirating the binding buffer from the culture dishes and washing the cells four times with ice cold phosphate buffered saline. The cells were then solubilized with 2 ml of 0.2M NaOH and duplicate 0.5 ml aliquots were taken for gamma counting. Specific binding of epidermal growth factor to its receptor was calculated by subtracting nonspecifically bound material from the total. Under the conditions of the assay, specific epidermal growth factor receptor binding represented greater than 80% of the total bound to the cells.
As a specific example of this assay, HeLa cells were treated with 4',5'-dihydropsoralen, followed by ultraviolet light exposure and then by measurement for epidermal growth factor binding. The data can be presented as a curve of epidermal growth factor receptor binding to the cells as a percentage of untreated cells. FIG. 1 is an example of 125-I EGF binding inhibition of 4',5'-dihydropsoralen and UVA. The concentration inhibiting epidermal growth factor binding to the cells by 50% (the IC50 value) is determined from the curve.
*IC50, concentration of each compound inhibiting 125I-EGF binding to
**Following treatment of the cells with the phototherapeutic they were
***Highest concentration tested

Setting [1] is: read-out: IC50, concentration of each compound inhibiting 125I-EGF binding to HeLa cells by 50%, cells pulsed with 2.1 J/cm^2 of ultraviolet light (UVA, 320-400 nm) after treatment, 2 nM 125I-EGF, 2 h at 4° C.
Where [2] appears, read: cells pulsed with 2.1 J/cm^2 of ultraviolet light (UVA, 320-400 nm) after treatment, 2 nM 125I-EGF, 2 h at 4° C., read-out: IC50, concentration of each compound inhibiting 125I-EGF binding to HeLa cells by 50%.

Structures can show the parent of a compound that is named as a salt. Where two headings read alike, the source gives them in different places. Bounds are passed on as bounds.

Turning to `CCOC(=O)c1cc2cc3c(cc2oc1=O)OCC3` [3-carboethoxy-4',5'-dihydropsoralen], under setting [1], the IC50 turned out to be 4.9 µM. For the compound `Cc1c([N+](=O)[O-])c(=O)oc2c(C)c3c(cc12)CC(C)O3` (stereo not drawn) [3-nitro-4,5',8-trimethyl-4',5'-dihydropsoralen], under setting [1], the IC50 was 24 µM. Still for that read-out and setting: to `O=c1ccc2cc3c(cc2o1)OCC3` [4',5'-dihydropsoralen] belongs 11 µM; to `Cc1cc(=O)oc2c(C)c3oc(CBr)c(Br)c3cc12` [4'-Bromo-5'-bromomethyl-4,8-dimethylpsoralen], 3.6 µM. Turning to `Cc1oc2c(C)c3oc(=O)cc(C)c3cc2c1C[N+](C)(C)C` [4'-[(N,N,N,-trimethylannonium)methyl]-4,5',8-trimethylpsoralen iodide salt], the IC50 under setting [2] was found to be 5 µM. Same read-out and setting: to `Cc1cc(=O)oc2c(C)c3c(cc12)CC(C)O3` (stereo not drawn) [4,5',8-trimethyl-4',5'-dihydropsoralen] belongs 7 µM. `Cc1cc2cc3c(C)cc(=O)oc3c(C)c2o1` [4,5',8-trimethylpsoralen, reference compound]: under setting [1], the IC50 was determined as 6.6 µM. Regarding `Cc1cc(=O)oc2c(C)c3oc(C[n+]4ccccc4)cc3cc12` [5'-[(N-Pyridinium)methyl]-4,8-dimethylpsoralen Bromide Salt], the IC50 under setting [1] amounted to 0.74 µM. For `Cc1cc(=O)oc2c(C)c3oc(CBr)cc3cc12` [5'-bromomethyl-4,8-dinethylpsoralen, 5'-Bromomethyl-4,8-dimethylpsoralen], the IC50 under setting [1] turned out to be 1.5 µM.

On to `COc1c2c(cc3oc(=O)ccc13)OCC2` [5-methoxy-4',5'-dihydropsoralen], for which, under setting [1], the IC50 came out at 2.8 µM.

With `COc1c2ccoc2cc2oc(=O)ccc12` [5-methoxypsoralen (5-MOP), 5-methoxypsoralen, reference compound], the IC50 under setting [1] was determined as 1.6 µM. For the compound `O=c1ccc2ccccc2o1` [coumarin, reference compound], the IC50 under setting [2] was greater than 100 µM.
